# According to publication PMC6131351, “Pharmacological difference between degrader and inhibitor against oncogenic BCR-ABL kinase” (Scientific Reports, 2018):
# Legend:
# Jurkat cells = assay: WST cell growth inhibition, Jurkat (BCR-ABL negative); format: cell-based; conditions: Homo sapiens, 48 h, WST assay, means ± SD (n = 3)
# BCR-ABL protein = biological target: T1, BCR-ABL protein (Homo sapiens, UniProt P00519+P11274); assay: Protein knockdown by western blot in K562 cells; format: cell-based; conditions: 6 h
# T1 construct: examined for their activity to degrade BCR-ABL in K562 cells for 6 h; BCR (fusion partner, P11274, N-terminal part); endogenous in cells; host or cells: K562
# T1 sequence (P11274+P00519 fused): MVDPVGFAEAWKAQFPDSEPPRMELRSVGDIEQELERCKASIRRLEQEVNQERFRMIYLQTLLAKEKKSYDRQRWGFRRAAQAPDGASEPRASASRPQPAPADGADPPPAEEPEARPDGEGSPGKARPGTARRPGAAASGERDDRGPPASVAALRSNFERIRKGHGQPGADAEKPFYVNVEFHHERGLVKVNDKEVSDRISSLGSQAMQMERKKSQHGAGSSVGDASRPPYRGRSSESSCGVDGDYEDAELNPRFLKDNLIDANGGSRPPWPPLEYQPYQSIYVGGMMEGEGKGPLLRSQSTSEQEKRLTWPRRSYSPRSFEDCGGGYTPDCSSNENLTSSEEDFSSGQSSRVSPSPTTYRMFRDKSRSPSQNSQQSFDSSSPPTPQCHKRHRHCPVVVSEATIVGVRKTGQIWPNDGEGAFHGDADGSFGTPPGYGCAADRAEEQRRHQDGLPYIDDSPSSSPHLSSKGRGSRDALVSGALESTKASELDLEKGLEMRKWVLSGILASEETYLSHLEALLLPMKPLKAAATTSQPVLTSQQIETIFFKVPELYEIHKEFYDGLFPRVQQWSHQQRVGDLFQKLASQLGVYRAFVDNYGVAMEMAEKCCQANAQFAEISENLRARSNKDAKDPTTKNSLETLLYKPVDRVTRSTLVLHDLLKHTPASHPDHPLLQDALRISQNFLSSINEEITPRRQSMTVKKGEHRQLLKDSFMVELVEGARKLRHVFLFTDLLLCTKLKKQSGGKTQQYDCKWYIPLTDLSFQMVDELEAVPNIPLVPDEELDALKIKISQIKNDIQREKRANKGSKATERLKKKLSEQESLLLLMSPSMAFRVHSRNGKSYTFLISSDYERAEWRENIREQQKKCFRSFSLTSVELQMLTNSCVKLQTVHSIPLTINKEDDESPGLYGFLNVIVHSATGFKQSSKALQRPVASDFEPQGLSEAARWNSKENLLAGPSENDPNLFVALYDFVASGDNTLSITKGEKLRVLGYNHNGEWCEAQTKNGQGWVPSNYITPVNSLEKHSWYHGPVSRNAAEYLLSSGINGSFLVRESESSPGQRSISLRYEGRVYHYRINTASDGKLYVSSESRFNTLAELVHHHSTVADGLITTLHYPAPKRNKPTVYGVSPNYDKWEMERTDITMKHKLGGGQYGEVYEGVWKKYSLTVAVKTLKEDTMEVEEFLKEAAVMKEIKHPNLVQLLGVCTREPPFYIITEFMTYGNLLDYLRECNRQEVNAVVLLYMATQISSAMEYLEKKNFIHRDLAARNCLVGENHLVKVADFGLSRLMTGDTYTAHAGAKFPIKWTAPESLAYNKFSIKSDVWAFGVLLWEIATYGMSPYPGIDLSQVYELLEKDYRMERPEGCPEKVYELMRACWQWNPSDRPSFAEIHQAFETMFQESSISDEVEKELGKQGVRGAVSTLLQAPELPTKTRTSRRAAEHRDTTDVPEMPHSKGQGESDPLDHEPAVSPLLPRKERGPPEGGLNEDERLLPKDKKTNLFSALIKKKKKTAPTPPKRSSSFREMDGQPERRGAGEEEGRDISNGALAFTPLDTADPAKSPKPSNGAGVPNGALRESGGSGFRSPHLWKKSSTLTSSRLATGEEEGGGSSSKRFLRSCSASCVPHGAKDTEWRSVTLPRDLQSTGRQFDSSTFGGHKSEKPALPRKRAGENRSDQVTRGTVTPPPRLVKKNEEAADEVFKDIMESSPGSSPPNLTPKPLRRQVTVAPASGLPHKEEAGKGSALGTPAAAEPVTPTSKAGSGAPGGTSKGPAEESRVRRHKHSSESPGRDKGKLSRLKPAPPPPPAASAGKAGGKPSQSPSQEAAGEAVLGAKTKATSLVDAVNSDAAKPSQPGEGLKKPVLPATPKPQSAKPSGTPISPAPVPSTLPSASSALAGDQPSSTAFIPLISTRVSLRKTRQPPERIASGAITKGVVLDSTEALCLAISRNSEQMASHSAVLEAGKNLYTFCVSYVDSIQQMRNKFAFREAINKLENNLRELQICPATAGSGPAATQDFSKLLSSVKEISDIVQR
# Method: Cells were collected and lysed in a lysis buffer (0.5% Triton X-100, 0.01 M Tris-HCl (pH 7.5), 0.15 M NaCl, Complete Mini protease inhibitor cocktail (Roche Applied Science, Indianapolis, IL, USA) and PhosStop phosphatase inhibitor cocktail (Roche Applied Science)). Protein concentrations were measured by the BCA method (Thermo Fisher Scientific) and an equal amount of protein lysate was separated by SDS-PAGE, transferred to polyvinylidene difluoride membranes (Merck Millipore) and analyzed by western blot using an appropriate antibody. The immunoreactive proteins were visualized using Clarity Western ECL substrate (Bio-Rad, Hercules, CA, USA) and their light emission was quantified with a LAS-3000 lumino-image analyzer (Fuji, Tokyo, Japan).
IC50 (Jurkat cells) [nM],"BCR-ABL, cIAP1 and XIAP protein levels (BCR-ABL protein)",knockdown activity against the BCR-ABL protein (BCR-ABL protein; 1-300 nM),SMILES
2870 ± 293,reduced,effective knockdown activity,CN[C@@H](C)C(=O)N[C@H](C(=O)N1CCC[C@H]1c1nc(C(=O)c2cccc(OCCOCCOCCOCC(=O)N3CCN(c4cc(Nc5ncc(C(=O)Nc6c(C)cccc6Cl)s5)nc(C)n4)CC3)c2)cs1)C1CCCCC1 [DAS-IAP]
2440 ± 310,did not reduce,,CN[C@@H](C)C(=O)N(C)[C@H](C(=O)N1CCC[C@H]1c1nc(C(=O)c2cccc(OCCOCCOCCOCC(=O)N3CCN(c4cc(Nc5ncc(C(=O)Nc6c(C)cccc6Cl)s5)nc(C)n4)CC3)c2)cs1)C1CCCCC1 [DAS-meIAP]
